What was measured:
Experiment in all cases: KINOMEscan competition binding
AKT1 (human) = AKT1 (human) (UniProt P31749)
AURKB (human) = AURKB (human) (UniProt Q96GD4)
BRSK1 (human) = BRSK1 (human) (UniProt Q8TDC3)
CAMK2B (human) = CAMK2B (human) (UniProt Q13554)
CAMK2D (human) = CAMK2D (human) (UniProt Q13557)
CDK4 CCND1 (human) = CDK4 CCND1 (human) (UniProt P11802+P24385)
CDK8 (human) = CDK8 (human) (UniProt P49336)
CDKL2 (human) = CDKL2 (human) (UniProt Q92772)
CSNK1D (human) = CSNK1D (human) (UniProt P48730)
CSNK1G2 (human) = CSNK1G2 (human) (UniProt P78368)
CSNK2A2 (human) = CSNK2A2 (human) (UniProt P19784)
CaMK1 (human) = CaMK1 (human) (UniProt Q14012)
[1] = system: EGFR (human), P00533 [G719C]
EPHA4 (human) = EPHA4 (human) (UniProt P54764)
EPHA4 (human), sequence (P54764 whole entry, looked up): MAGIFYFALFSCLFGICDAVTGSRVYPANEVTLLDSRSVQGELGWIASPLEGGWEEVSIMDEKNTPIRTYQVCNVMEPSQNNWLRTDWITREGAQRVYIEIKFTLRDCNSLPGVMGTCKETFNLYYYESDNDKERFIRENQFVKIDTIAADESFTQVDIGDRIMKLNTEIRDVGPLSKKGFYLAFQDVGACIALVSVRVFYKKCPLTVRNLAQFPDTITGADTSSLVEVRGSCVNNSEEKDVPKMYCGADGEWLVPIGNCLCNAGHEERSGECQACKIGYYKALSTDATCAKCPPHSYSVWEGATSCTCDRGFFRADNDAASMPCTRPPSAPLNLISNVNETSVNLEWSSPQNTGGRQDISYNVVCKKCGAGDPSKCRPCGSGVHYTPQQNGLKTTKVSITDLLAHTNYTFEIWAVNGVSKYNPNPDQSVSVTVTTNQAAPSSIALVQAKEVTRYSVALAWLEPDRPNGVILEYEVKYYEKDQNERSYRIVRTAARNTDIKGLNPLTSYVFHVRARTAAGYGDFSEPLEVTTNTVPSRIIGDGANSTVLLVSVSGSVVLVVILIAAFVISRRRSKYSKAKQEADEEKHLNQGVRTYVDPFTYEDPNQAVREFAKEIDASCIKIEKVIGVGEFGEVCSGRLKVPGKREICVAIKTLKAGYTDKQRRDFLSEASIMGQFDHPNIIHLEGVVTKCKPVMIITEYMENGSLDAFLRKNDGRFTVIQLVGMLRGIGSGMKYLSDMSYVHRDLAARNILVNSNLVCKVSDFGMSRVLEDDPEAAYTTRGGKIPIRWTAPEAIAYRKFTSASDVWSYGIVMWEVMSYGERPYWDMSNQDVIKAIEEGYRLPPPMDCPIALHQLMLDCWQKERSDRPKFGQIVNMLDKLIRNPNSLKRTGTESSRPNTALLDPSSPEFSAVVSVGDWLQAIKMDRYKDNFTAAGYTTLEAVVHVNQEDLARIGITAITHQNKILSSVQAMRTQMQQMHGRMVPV

FGFR1 (human) = FGFR1 (human) (UniProt P11362)
FGFR3 (human) = FGFR3 (human) (UniProt P22607)
FGFR4 (human) = FGFR4 (human) (UniProt P22455)
[2] = system: FLT3 (human), P36888 [K663Q]
FLT4 (human) = FLT4 (human) (UniProt P35916)
FLT4 (human), sequence (P35916 whole entry, looked up): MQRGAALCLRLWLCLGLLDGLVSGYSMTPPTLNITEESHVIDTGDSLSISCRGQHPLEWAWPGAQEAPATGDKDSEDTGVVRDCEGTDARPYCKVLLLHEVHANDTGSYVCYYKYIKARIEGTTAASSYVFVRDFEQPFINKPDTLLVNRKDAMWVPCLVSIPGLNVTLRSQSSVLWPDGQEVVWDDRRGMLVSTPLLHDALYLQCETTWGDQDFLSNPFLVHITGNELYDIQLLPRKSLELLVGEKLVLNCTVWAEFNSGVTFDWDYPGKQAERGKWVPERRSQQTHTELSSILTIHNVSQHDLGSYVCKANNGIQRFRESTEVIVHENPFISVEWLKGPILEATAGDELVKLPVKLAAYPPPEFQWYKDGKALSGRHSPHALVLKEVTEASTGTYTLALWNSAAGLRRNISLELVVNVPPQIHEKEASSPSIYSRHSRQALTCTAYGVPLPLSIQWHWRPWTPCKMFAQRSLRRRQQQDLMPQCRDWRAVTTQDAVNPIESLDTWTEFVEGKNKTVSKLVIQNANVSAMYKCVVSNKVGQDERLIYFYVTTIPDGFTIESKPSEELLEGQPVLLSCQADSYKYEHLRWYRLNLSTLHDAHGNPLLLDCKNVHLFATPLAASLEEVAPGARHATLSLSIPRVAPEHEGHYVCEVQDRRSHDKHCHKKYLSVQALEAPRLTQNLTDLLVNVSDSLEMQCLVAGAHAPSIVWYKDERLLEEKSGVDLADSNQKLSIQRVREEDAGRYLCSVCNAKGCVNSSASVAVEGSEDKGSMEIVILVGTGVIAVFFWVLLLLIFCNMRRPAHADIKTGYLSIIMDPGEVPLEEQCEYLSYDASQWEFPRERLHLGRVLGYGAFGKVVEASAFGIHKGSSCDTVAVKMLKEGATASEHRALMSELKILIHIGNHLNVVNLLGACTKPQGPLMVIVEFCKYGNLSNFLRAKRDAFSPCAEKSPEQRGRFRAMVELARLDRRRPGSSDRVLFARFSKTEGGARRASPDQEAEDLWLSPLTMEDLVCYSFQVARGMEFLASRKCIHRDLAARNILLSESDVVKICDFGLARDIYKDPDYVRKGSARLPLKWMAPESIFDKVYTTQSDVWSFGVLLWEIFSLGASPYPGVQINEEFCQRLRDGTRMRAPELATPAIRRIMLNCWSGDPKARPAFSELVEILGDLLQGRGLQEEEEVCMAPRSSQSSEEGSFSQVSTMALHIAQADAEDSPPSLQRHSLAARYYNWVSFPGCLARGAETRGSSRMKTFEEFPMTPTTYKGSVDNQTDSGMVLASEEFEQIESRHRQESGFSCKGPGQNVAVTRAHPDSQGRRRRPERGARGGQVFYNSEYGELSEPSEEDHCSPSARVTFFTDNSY

HIPK1 (human) = HIPK1 (human) (UniProt Q86Z02)
INSR (human) = INSR (human) (UniProt P06213)
MAP3K12 (human) = MAP3K12 (human) (UniProt Q12852)
MAP3K9 (human) = MAP3K9 (human) (UniProt P80192)
MAPK14 (human) = MAPK14 (human) (UniProt Q16539)
MAPK4 (human) = MAPK4 (human) (UniProt P31152)
MAPK6 (human) = MAPK6 (human) (UniProt Q16659)
MAPK6 (human), sequence (Q16659 whole entry, looked up): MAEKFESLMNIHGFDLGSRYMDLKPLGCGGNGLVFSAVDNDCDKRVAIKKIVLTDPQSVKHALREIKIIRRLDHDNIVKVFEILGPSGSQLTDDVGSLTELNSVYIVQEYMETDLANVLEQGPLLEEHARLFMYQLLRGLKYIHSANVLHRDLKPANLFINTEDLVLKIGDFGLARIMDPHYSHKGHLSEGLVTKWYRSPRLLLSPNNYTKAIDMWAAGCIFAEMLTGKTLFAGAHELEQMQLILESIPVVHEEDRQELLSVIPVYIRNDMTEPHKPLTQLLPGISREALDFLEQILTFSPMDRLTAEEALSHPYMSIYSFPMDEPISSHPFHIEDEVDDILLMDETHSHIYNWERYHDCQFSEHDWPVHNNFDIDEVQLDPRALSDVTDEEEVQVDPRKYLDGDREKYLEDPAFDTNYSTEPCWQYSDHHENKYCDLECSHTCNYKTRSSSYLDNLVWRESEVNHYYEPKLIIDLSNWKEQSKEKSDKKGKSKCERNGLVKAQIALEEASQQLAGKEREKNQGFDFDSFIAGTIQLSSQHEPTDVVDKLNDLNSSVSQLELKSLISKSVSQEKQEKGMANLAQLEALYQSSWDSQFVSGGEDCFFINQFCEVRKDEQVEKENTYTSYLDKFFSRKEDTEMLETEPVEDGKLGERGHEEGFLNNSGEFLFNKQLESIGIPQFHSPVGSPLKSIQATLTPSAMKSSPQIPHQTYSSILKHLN

MAPK7 (human) = MAPK7 (human) (UniProt Q13164)
MAPKAPK5 (human) = MAPKAPK5 (human) (UniProt Q8IW41)
MAPKAPK5 (human), sequence (Q8IW41 whole entry, looked up): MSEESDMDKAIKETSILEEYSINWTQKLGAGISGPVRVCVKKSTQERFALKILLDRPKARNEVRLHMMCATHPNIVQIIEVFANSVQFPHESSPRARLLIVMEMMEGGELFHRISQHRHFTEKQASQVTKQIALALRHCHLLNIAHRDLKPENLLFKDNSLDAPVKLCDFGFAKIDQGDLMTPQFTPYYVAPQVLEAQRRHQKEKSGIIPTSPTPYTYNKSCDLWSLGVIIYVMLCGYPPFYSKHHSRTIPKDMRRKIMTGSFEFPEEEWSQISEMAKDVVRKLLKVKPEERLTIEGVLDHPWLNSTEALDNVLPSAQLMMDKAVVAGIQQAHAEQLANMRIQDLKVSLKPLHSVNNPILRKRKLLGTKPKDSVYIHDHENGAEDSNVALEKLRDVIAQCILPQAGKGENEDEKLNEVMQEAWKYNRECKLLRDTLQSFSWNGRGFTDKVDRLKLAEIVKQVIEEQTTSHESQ

MTOR (human) = MTOR (human) (UniProt P42345)
NEK1 (human) = NEK1 (human) (UniProt Q96PY6)
NTRK3 (human) = NTRK3 (human) (UniProt Q16288)
PRKD3 (human) = PRKD3 (human) (UniProt O94806)
PRKG1 (human) = PRKG1 (human) (UniProt Q13976)
RET (human) = RET (human) (UniProt P07949)
RPS6KA5 KD2 (human) = RPS6KA5 KD2 (human) (UniProt O75582)
RPS6KB1 (human) = RPS6KB1 (human) (UniProt P23443)
STK11 (human) = STK11 (human) (UniProt Q15831)
STK17B (human) = STK17B (human) (UniProt O94768)
TIE1 (human) = TIE1 (human) (UniProt P35590)
TNIK (human) = TNIK (human) (UniProt Q9UKE5)
TNIK (human), sequence (Q9UKE5 whole entry, looked up): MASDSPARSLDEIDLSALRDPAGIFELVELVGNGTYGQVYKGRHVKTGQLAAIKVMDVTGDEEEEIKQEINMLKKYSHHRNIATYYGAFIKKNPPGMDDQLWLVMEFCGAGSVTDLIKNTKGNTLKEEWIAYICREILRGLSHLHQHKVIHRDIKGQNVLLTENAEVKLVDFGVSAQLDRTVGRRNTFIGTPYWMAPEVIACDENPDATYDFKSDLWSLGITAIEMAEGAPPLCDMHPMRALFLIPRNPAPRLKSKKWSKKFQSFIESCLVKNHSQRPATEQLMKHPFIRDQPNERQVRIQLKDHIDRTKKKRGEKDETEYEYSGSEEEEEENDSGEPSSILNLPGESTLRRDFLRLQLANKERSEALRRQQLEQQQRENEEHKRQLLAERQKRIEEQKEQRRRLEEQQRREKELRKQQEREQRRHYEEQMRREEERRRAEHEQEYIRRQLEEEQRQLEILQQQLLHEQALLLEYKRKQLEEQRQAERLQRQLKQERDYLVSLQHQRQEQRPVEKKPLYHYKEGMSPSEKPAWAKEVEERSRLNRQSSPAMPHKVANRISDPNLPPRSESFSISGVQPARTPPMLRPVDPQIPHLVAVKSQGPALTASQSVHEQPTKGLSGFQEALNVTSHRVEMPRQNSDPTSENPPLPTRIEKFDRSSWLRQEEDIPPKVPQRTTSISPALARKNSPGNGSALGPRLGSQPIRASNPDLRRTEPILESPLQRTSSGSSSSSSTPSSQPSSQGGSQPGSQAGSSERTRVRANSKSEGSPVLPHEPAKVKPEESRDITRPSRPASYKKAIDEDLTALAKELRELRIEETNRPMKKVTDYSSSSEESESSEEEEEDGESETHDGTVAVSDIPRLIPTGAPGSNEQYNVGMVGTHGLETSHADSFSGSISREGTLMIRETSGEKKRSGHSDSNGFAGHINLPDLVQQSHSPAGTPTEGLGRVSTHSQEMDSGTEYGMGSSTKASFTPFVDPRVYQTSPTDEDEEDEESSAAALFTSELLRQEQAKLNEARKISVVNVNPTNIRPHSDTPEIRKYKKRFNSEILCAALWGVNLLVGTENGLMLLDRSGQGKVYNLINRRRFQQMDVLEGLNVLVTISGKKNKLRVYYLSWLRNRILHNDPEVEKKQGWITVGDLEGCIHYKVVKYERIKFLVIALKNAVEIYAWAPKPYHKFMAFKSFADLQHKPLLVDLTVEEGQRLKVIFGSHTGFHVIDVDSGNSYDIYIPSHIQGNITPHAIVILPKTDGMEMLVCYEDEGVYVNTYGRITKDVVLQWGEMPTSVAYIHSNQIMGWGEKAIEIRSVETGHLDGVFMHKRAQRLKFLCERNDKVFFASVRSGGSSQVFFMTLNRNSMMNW

TSSK1B (human) = TSSK1B (human) (UniProt Q9BXA7)
ZAP70 (human) = ZAP70 (human) (UniProt P43403)

Structure (SMILES): CN(C)C/C=C/C(=O)Nc1cccc(C(=O)Nc2ccc(Nc3nccc(-c4cccnc4)n3)cc2)c1
- kinase still bound, per cent of control (AKT1 (human); compound 1.0 µM): 87%
- kinase still bound, per cent of control (AURKB (human); compound 1.0 µM): 63%
- kinase still bound, per cent of control (BRSK1 (human); compound 1.0 µM): 85%
- kinase still bound, per cent of control (CAMK2B (human); compound 1.0 µM): 82%
- kinase still bound, per cent of control (CAMK2D (human); compound 1.0 µM): 100%
- kinase still bound, per cent of control (CDK4 CCND1 (human); compound 1.0 µM): 61%
- kinase still bound, per cent of control (CDK8 (human); compound 1.0 µM): 68%
- kinase still bound, per cent of control (CDKL2 (human); compound 1.0 µM): 21%
- kinase still bound, per cent of control (CSNK1D (human); compound 1.0 µM): 5.6%
- kinase still bound, per cent of control (CSNK1G2 (human); compound 1.0 µM): 12%
- kinase still bound, per cent of control (CSNK2A2 (human); compound 1.0 µM): 13%
- kinase still bound, per cent of control (CaMK1 (human); compound 1.0 µM): 100%
- kinase still bound, per cent of control ([1]; compound 1.0 µM): 48%
- kinase still bound, per cent of control (EPHA4 (human); compound 1.0 µM): 94%
- kinase still bound, per cent of control (FGFR1 (human); compound 1.0 µM): 90%
- kinase still bound, per cent of control (FGFR3 (human); compound 1.0 µM): 78%
- kinase still bound, per cent of control (FGFR4 (human); compound 1.0 µM): 100%
- kinase still bound, per cent of control ([2]; compound 1.0 µM): 48%
- kinase still bound, per cent of control (FLT4 (human); compound 1.0 µM): 95%
- kinase still bound, per cent of control (HIPK1 (human); compound 1.0 µM): 3.6%
- kinase still bound, per cent of control (INSR (human); compound 1.0 µM): 100%
- kinase still bound, per cent of control (MAP3K12 (human); compound 1.0 µM): 72%
- kinase still bound, per cent of control (MAP3K9 (human); compound 1.0 µM): 80%
- kinase still bound, per cent of control (MAPK14 (human); compound 1.0 µM): 83%
- kinase still bound, per cent of control (MAPK4 (human); compound 1.0 µM): 11%
- Kd (MAPK6 (human)): 22 nM
- kinase still bound, per cent of control (MAPK6 (human); compound 1.0 µM): 0.4%
- kinase still bound, per cent of control (MAPK7 (human); compound 1.0 µM): 100%
- kinase still bound, per cent of control (MAPKAPK5 (human); compound 1.0 µM): 68%
- kinase still bound, per cent of control (MTOR (human); compound 1.0 µM): 100%
- kinase still bound, per cent of control (NEK1 (human); compound 1.0 µM): 77%
- kinase still bound, per cent of control (NTRK3 (human); compound 1.0 µM): 97%
- kinase still bound, per cent of control (PRKD3 (human); compound 1.0 µM): 100%
- kinase still bound, per cent of control (PRKG1 (human); compound 1.0 µM): 100%
- kinase still bound, per cent of control (RET (human); compound 1.0 µM): 100%
- kinase still bound, per cent of control (RPS6KA5 KD2 (human); compound 1.0 µM): 100%
- kinase still bound, per cent of control (RPS6KB1 (human); compound 1.0 µM): 68%
- kinase still bound, per cent of control (STK11 (human); compound 1.0 µM): 67%
- kinase still bound, per cent of control (STK17B (human); compound 1.0 µM): 24%
- kinase still bound, per cent of control (TIE1 (human); compound 1.0 µM): 100%
- kinase still bound, per cent of control (TNIK (human); compound 1.0 µM): 40%
- kinase still bound, per cent of control (TSSK1B (human); compound 1.0 µM): 100%
- kinase still bound, per cent of control (ZAP70 (human); compound 1.0 µM): 100%

Structure (SMILES): Cc1ccc(NC(=O)c2ccc(NC(=O)/C=C/CN(C)C)cc2)cc1Nc1nccc(-c2cccnc2)n1
- kinase still bound, per cent of control (AKT1 (human); compound 10.0 µM): 100%
- kinase still bound, per cent of control (AURKB (human); compound 10.0 µM): 86%
- kinase still bound, per cent of control (BRSK1 (human); compound 10.0 µM): 53%
- kinase still bound, per cent of control (CAMK2B (human); compound 10.0 µM): 100%
- kinase still bound, per cent of control (CAMK2D (human); compound 10.0 µM): 100%
- kinase still bound, per cent of control (CDK4 CCND1 (human); compound 10.0 µM): 100%
- kinase still bound, per cent of control (CDK8 (human); compound 10.0 µM): 93%
- kinase still bound, per cent of control (CDKL2 (human); compound 10.0 µM): 100%
- kinase still bound, per cent of control (CSNK1D (human); compound 10.0 µM): 54%
- kinase still bound, per cent of control (CSNK1G2 (human); compound 10.0 µM): 83%
- kinase still bound, per cent of control (CSNK2A2 (human); compound 10.0 µM): 21%
- kinase still bound, per cent of control (CaMK1 (human); compound 10.0 µM): 75%
- kinase still bound, per cent of control ([1]; compound 10.0 µM): 45%
- kinase still bound, per cent of control (EPHA4 (human); compound 10.0 µM): 100%
- kinase still bound, per cent of control (FGFR1 (human); compound 10.0 µM): 87%
- kinase still bound, per cent of control (FGFR3 (human); compound 10.0 µM): 100%
- kinase still bound, per cent of control (FGFR4 (human); compound 10.0 µM): 100%
- kinase still bound, per cent of control ([2]; compound 10.0 µM): 84%
- kinase still bound, per cent of control (FLT4 (human); compound 10.0 µM): 88%
- kinase still bound, per cent of control (HIPK1 (human); compound 10.0 µM): 44%
- kinase still bound, per cent of control (INSR (human); compound 10.0 µM): 93%
- kinase still bound, per cent of control (MAP3K12 (human); compound 10.0 µM): 94%
- kinase still bound, per cent of control (MAP3K9 (human); compound 10.0 µM): 100%
- kinase still bound, per cent of control (MAPK14 (human); compound 10.0 µM): 66%
- kinase still bound, per cent of control (MAPK4 (human); compound 10.0 µM): 100%
- kinase still bound, per cent of control (MAPK6 (human); compound 10.0 µM): 85%
- kinase still bound, per cent of control (MAPK7 (human); compound 10.0 µM): 100%
- kinase still bound, per cent of control (MAPKAPK5 (human); compound 10.0 µM): 74%
- kinase still bound, per cent of control (MTOR (human); compound 10.0 µM): 100%
- kinase still bound, per cent of control (NEK1 (human); compound 10.0 µM): 100%
- kinase still bound, per cent of control (NTRK3 (human); compound 10.0 µM): 82%
- kinase still bound, per cent of control (PRKD3 (human); compound 10.0 µM): 100%
- kinase still bound, per cent of control (PRKG1 (human); compound 10.0 µM): 97%
- kinase still bound, per cent of control (RET (human); compound 10.0 µM): 99%
- kinase still bound, per cent of control (RPS6KA5 KD2 (human); compound 10.0 µM): 100%
- kinase still bound, per cent of control (RPS6KB1 (human); compound 10.0 µM): 100%
- kinase still bound, per cent of control (STK11 (human); compound 10.0 µM): 92%
- kinase still bound, per cent of control (STK17B (human); compound 10.0 µM): 64%
- kinase still bound, per cent of control (TIE1 (human); compound 10.0 µM): 80%
- kinase still bound, per cent of control (TNIK (human); compound 10.0 µM): 43%
- kinase still bound, per cent of control (TSSK1B (human); compound 10.0 µM): 100%
- kinase still bound, per cent of control (ZAP70 (human); compound 10.0 µM): 56%
